Assay results: patent US20240002467A1, “COMPOSITIONS AND METHODS OF INHIBITING THE BINDING OF PLASMA IGG AUTOANTIBODIES TO SEROTONIN 2A RECEPTOR” (UNITED STATES GOVERNMENT AS REPRESENTED BY THE DEPARTMENT …, priority 2020, published 2024)
Values joined by “and” are separate entries in the source; they are usually repeats but may differ in a detail not shown here. Identical values can stand only once. “Also recorded” adds a separate entry of the source. Ends that are not written are not given here.

Assays:
[1] = cited from earlier work
[2] = test system: Zucker diabetic fatty rats; settings: ZDF rats treated 6 months, cited from earlier work
[3] = test system: Zucker diabetic fatty rats; assay: Observation of side effects / tolerability in ZDF rats
[4] = once-daily valsartan 160 mg; cited from earlier work
[5] = test system: Zucker diabetic fatty rats; settings: rat, in vivo
[6] = test system: male Zucker diabetic fatty rats; assay: Tail cuff blood pressure in male ZDF rats after IP peptide; type: in vivo, rat; parameters: systolic blood pressure within 15 minutes of administration: unit not given here; settings: for mean systolic blood pressure, baseline: 8.5-week-old male ZDF rats before single IP: pegylated 1 mg/kg (n=3), scrambled 2 mg/kg (n=4); for Estimate: difference in mean diastolic blood pressure vs scrambled decoy peptide 2 (time series analysis) / Estimate: difference in mean systolic blood pressure vs scrambled decoy peptide 2 (time series analysis): pegylated 1 mg/kg IP vs scrambled 2 mg/kg IP (reference = 0)
Method: Animals. Male ZDF and lean (+/?) Zucker rats were obtained from Charles River Laboratories (Kingston, NY) at approximately 6-7 weeks of age. The rats were single housed upon arrival, without enrichment. Rats were acclimatized for two weeks prior to experimental procedures. Rats were provided ad libitum access to food and water and maintained in a 12 h light/dark cycle with lights on at 0630. The procedures occurred during the light phase of the cycle. Blood pressure testing (following acute or chronic administration of the decoy peptides) was conducted in three separate cohorts of animals.
Cohort 1: Three 25-week-old male ZDF and three, age-matched, male Zucker lean rats (ZLR) treated with IP decoy peptide 2 (ZDF) vs saline (vehicle) (ZLR).
Cohort 2: Eleven-week old male ZDF (n=5) and Zucker lean rats (n=4) treated with IP decoy peptide 2.
Cohort 3: Twelve 8.5-week old male Zucker diabetic fatty rats were randomly assigned to one of three treatment groups (n=4/group). The rats underwent baseline blood pressure determinations using tail-cuff plethysmography technique. Next, the animals who expressed baseline hypertension, i.e., blood pressure >135/85, received either a 1 mg/kg intraperitoneal injection of pegylated decoy peptide 2 (n=3); a 2 mg/kg intraperitoneal dose of a scrambled decoy peptide 2 (n=4); or vehicle (i.e., sterile saline) (N=4). Blood pressure was determined at 15 minutes, 45 minutes, 4 hours, 8 hours, 24 hours, 30 and 48 hours following single IP injection. One week later, the same two groups of ZDF rats received either 0.75 mg/kg IP pegylated decoy peptide 2, 2 mg/kg scrambled decoy peptide 2, or sterile saline; and blood pressure was determined at similar timepoints. Two weeks later, two groups of 12-week-old ZDF rats (n=6/group) including those that had previously received acute peglyated decoy peptide 2 or scrambled decoy peptide 2 were treated on an alternative daily schedule with IP, free decoy peptide 2 (2 mg/kg) vs IP scrambled decoy peptide 2 (2 mg/kg) continuously for 13 weeks until sacrifice at 25 weeks of age. Body weight was determined immediately before sacrifice and after perfusion; and hearts were excised and weighed for determination of the heart-to-(perfused) body weight ratio.
(§1) Blood pressure monitoring. Tail cuff blood pressure measurement was performed using an automated CODA noninvasive blood pressure system (Kent Scientific, Torrington, CT). Rats were placed on an insulated warming platform in a well-heated room to ensure proper body temperature. Cuff monitors were provided in different sizes to accommodate rats of different ages and having different body weights. After the animal was positioned in the clear plastic restraint holder, the appropriate-sized cuff was slid over the rat's tail.
Statistical Analysis. Comparisons were made using Student's unpaired t-test (Tables 3-6, 9 and FIG. 18) or time series analysis (Tables 7, 8, FIG. 16).
as §1, with “CT.).” for “CT).”
Experiment 1: Four 12-week-old male ZDF rats were randomly assigned to receive either a single IP injection of a scrambled sequence (SEQ ID NO: 7) of Peptide ID #2 (SEQ ID NO: 2) at 1 mg/kg concentration or a 1 mg/kg concentration of myristolated Peptide ID #2 (SEQ ID NO: 9). Blood pressure was determined using tail cuff plethysmography (Kent Scientific) at 1, 4, 6, 48 and 72 hours post-injection.
Experiment 2: Six 12-week-old male ZDF rats were assigned to each of three treatment groups (N=2/group). […]

[7] = test system: Zucker diabetic fatty rats; assay: Plasma hepatic transaminases (AST, ALT) after chronic IP treatment of ZDF rats; type: in vivo, rat; settings: 2 mg/kg IP alternate daily weeks 10-16, blood at week 16, vs saline
Method: Two groups of Zucker diabetic fatty rats (N=4 each) were treated with alternate daily intraperitoneal dose (IP) of either a composition comprising decoy peptide 2 (SEQ ID NO: 2) (2 mg/kg) or an equal volume of sterile saline (vehicle) for […] (between weeks 10-16). Blood was obtained at week 16 for determination of plasma hepatic transaminases (AST, ALT) and plasma triglycerides.

[8] = 8.5-week-old male ZDF rats, single IP: pegylated 1 mg/kg, scrambled 2 mg/kg
[9] = ZDF rats, before pegylated 0.75 mg/kg IP
[10] = ZDF rats, pegylated 0.75 mg/kg single IP
[11] = ZDF rats, listed as Peg decoy peptide 2
[12] = ZDF rats, pegylated 1 mg/kg single IP

CC/C=C\C/C=C\C/C=C\C/C=C\C/C=C\CCCC(=O)O [EPA]
HR for cardiovascular events ([1]; REDUCE-IT): 0.75
reduction in occurrences of cardiovascular death, nonfatal heart attack, nonfatal stroke, coronary stenting or bypass or unstable angina ([1]; REDUCE-IT): 25%
reduction of plasma triglyceride level ([1]; humans, chronic treatment, REDUCE-IT after 1 year): 18% and 18.3%

CN(C)C(=N)N=C(N)N [metformin]
serum ALT, times higher than upper limit of normal ([2]; both groups): more than 3 times
serum ALT ([2]; metformin or vehicle (both groups)): ~142 IU/L

CC(C)C[C@H](NC(=O)[C@H](CS)NC(=O)[C@H](CC(=O)O)NC(=O)[C@H](CC(N)=O)NC(=O)[C@H](CO)NC(=O)[C@H](C)NC(=O)[C@@H](N)CC(C)C)C(=O)N[C@@H](CC(=O)O)C(=O)O [scrambled decoy peptide 2, reference compound]
untoward physical or behavioral effect ([3]; ten ZDF rats (Expt 1 and 2), up to 14-21 days after single IP): None of the ten rats tested (N=4 in Expt 1; N=6 in Expt 2) experienced any untoward physical or behavioral effect

CCCCC(=O)N(Cc1ccc(-c2ccccc2-c2nnn[nH]2)cc1)[C@H](C(=O)O)C(C)C [valsartan]
systolic blood pressure-lowering effect after 24 hours, in words [4]: no significant systolic blood pressure-lowering effect

K(DBCO-DSPE-PEG2K)-SCLLADDN (not fully specified; Lys-DBCO-DSPE-PEG2000 conjugate; MOD_RES (1)..(1) Lys(Azide)) [pegylated decoy peptide 2]
tolerability after the initial dose [5]: no sedation or hypotension was observed after the initial dose
mean systolic blood pressure, baseline [6]: 155 mm Hg
mean systolic blood pressure, baseline ([6]; listed as Pegylated decoy peptide 2): 155+/−12 mm Hg
mean diastolic blood pressure, baseline ([6]; 8.5-week-old male ZDF rats before single IP: pegylated 1 mg/kg, scrambled 2 mg/kg): 105+/−8 mm Hg
mean diastolic blood pressure 45 minutes post-injection [6, 8]: 92+/−11 mm Hg
mean systolic blood pressure 45 minutes post-injection [6, 8]: 122+/−5 mm Hg
diastolic blood pressure, baseline [6, 9]: 108 mm Hg
systolic blood pressure, baseline [6, 9]: 154 mm Hg
diastolic blood pressure 30 hours post injection [6, 10]: 80 mm Hg
diastolic blood pressure at 45 minutes post-injection [6, 10]: 80 mm Hg
diastolic blood pressure lowering at 45 minutes post-injection [6, 10]: 19%
reduction of systolic blood pressure at 45 minutes post-injection [6, 10]: 17%
reduction of systolic blood pressure between 24-30 hours after injection [6, 10]: 14-19%
systolic blood pressure at 45 minutes post-injection [6, 10]: 128 mm Hg
time at which diastolic blood pressure recovered to baseline [6, 10]: 48 h
time at which systolic blood pressure recovered to baseline [6, 10]: 48 h
Estimate: difference in mean diastolic blood pressure vs scrambled decoy peptide 2 (time series analysis) ([6]; ZDF rats): −9.8 mm Hg
Estimate: difference in mean systolic blood pressure vs scrambled decoy peptide 2 (time series analysis) ([6]; ZDF rats): −8.9 mm Hg
Estimate: difference in mean diastolic blood pressure vs scrambled decoy peptide 2 (time series analysis) [6, 11]: −9.7771 mm Hg
Estimate: difference in mean systolic blood pressure vs scrambled decoy peptide 2 (time series analysis) [6, 11]: −8.9162 mm Hg
change of systolic blood pressure within 15 minutes vs baseline [6, 12]: −28%
diastolic blood pressure lower than baseline at 30 hours post injection [6, 12]: 34%
maximum reduction of diastolic blood pressure, 8 hours after injection [6, 12]: 36%
reduction of diastolic blood pressure at 4 hours post-injection [6, 12]: 20%
systolic blood pressure within 15 minutes of administration [6, 12]: 111
time after which systolic blood pressure had returned to baseline [6, 12]: 48 h
dose dependence of systolic and diastolic blood pressure lowering, in words ([6]; ZDF rats, single IP 0.75 to 1 mg/kg): significant, dose-dependent systolic and diastolic blood pressure lowering effects; also recorded: significant, dose-dependent, long-lasting systolic and diastolic blood pressure-lowering effect
effect on diastolic blood pressure, in words ([6]; ZDF rats, single IP: pegylated 1 mg/kg, scrambled 2 mg/kg): trend of significant acute decline in diastolic blood pressure
sustained reductions in systolic and diastolic blood pressure 30 hours after administration ([6]; male ZDF rat, pegylated 1 mg/kg): 25-26%

SCLLADDN [decoy peptide 2]
mean plasma AST [7]: did not differ significantly; also recorded: not associated with significant increase in AST
side effects of acute blood pressure-lowering ([3]; 11-week-old male ZDF rats (N=5), 2 mg/kg IP): none of the five male ZDF rats experienced any untoward side effects including hypotension or acute sedation
acute side effects after first dose ([3]; 25-week-old male ZDF rats, 2 mg/kg IP, two of three rats, resolved spontaneously): sedation and borderline hypotension
side effects after repeat drug exposure ([3]; 25-week-old male ZDF rats, up to 18 days after repeat 2 mg/kg IP): no untoward acute or long-term side effects
long-term side effects after chronic administration ([3]; ZDF rats, chronic (10 weeks) administration): No untoward long-term side effects were observed
safety and tolerability of alternate daily dosing ([3]; obese Zucker rats, 2 mg/kg alternate daily): safe, well-tolerated
